For six compounds, GI50 results are on record in patent US10350210B2, “EGFR and ALK dual inhibitor” (PRECEDO PHARMACEUTICALS CO., LTD, priority 2015, dated 2019).

Assay [1] concerns NCI-H2122. The experiment in a line: Growth of cancer cells (Cell Titer-Glo viability), NCI-H2122. The class given is cell-based. The following applies: Homo sapiens; NCI-H2122 (wild-type EGFR), 72 hrs. The text has this: (§1) By testing the effect of the novel kinase inhibitors on the proliferation of cancer cells, the selectivity of the compounds of the present disclosure in inhibiting the proliferation of cancer cells was further assessed. In this example, human non-small cell lung cancer cell NCI-H1975 (expressing EGFR L858R/T790M double mutant gene), human skin squamous carcinoma cell A431 (expressing wild-type EGFR gene), non-small cell lung cancer NCI-H3255 (expressing EGFR L858R mutant gene), non-small cell lung cancer cell NCI-H3122 (expressing ALK gene), human non-small cell lung cancer cell A549 (expressing wild-type EGFR gene), human non-small cell lung cancer cell NCI-H2122 (expressing wild-type EGFR gene), human non-small cell lung cancer cell NCI-H460 (expressing wild-type EGFR gene), human non-small cell lung cancer cell PC-9 (expressing EGFR delE746_A750 mutant gene), Chinese hamster ovary cell CHO (Cricetulus griseus, hamster, Chinese, ovary), Chinese hamster lung cell CHL, human non-small cell lung cancer cell HCC827 (expressing mutant EGFR del19 gene), human lung adenocarcinoma cell HCC4006 (expressing mutant EGFR del19 gene), human non-small cell lung cancer cell NCI-H2228 (expressing wild-type ALK gene), and mouse primary B cell BaF3 were used, and the above cells were all purchased from ATCC (US). In addition, mouse BaF3-TEL-ALK (stably expressing ALK kinase), mouse BaF3-ALK-F1174L (stably expressing mutant ALK F1174L kinase), mouse BaF3-NPM-ALK (stably expressing ALK kinase), mouse BaF3-TEL-EGFR (stably expressing EGFR kinase), mouse BaF3-TEL-EGFR-T790M (stably expressing EGFR T790M mutant kinase), mouse BaF3-FL-EGFR-Del19 (stably expressing EGFR delE746_A750 mutant kinase), mouse BaF3-TEL-EGFR-L858R (stably expressing EGFR L858R mutant kinase), mouse BaF3-FL-EGFR-T790M-L858R (stably expressing EGFR T790M/L858R mutant kinase), mouse BaF3-TEL-INSR (stably expressing INSR protein), mouse BaF3-TEL-IGF1R (stably expressing IGF1R Protein), mouse BaF3-EML4-ALK (stably expressing EML4-ALK Protein), mouse BaF3-TEL-JAK3 (stably expressing JAK3 kinase protein), mouse BaF3-TEL-CSF1R (stably expressing CSF1R protein), and mouse BaF3-TEL-ALK-F1196M (stably expressing ALK F1196M mutant kinase) were also used in this example. The above cell lines were all established by our laboratory via the following process: kinase proteins or protein domain sequences of human ALK, ALK F1174L, EGFR, EGFR T790M, EGFR delE746_A750, EGFR L858, EGFR T790M/L858R, INSR, IGF1R, EML4-ALK, JAK3, CSF1R, ALK F1196M were amplified respectively by PCR, and were respectively inserted into MSCV-Puro vector (Clontech) with N-terminal TEL fragments and/or NPM fragments and/or TPR fragments; the resultants were stably transfected into mouse BaF3 cells by the means of retrovirus, and the IL-3 growth factors were removed, and eventually the ALK, ALK F1174L, EGFR, EGFR T790M, EGFR delE746_A750, EGFR L858, EGFR T790M/L858R, INSR, IGF1R, EML4-ALK, JAK3, CSF1R, ALK F1196M-transferred protein dependent cell lines were obtained.
(§2) The number of viable cells was determined quantitatively by a microplate reader using Cell Titer-Glo® (Promega, US) chemiluminescence cell viability assay kit.
Background: ATP-based viability assays read luminescence as a measure of living cells.

Assay [2] relates to CHO. As to the kind of experiment: Cell growth (Cell Titer-Glo viability), CHO. It is filed as cell-based, Chinese hamster. The conditions noted are these: Cricetulus griseus; CHO Chinese hamster ovary cell, 72 hrs; read-out: GI50.
Excerpt: as §1, §2

Assay [3] relates to A549. As to the kind of experiment: Growth of cancer cells (Cell Titer-Glo viability), A549. It is filed as cell-based. The following applies: Homo sapiens; A549 (wild-type EGFR), 72 hrs.
Excerpt: as §1, §2

Assay [4] relates to BaF3. The experiment in a line: Cell growth (Cell Titer-Glo viability), BaF3. It is filed as cell-based. The conditions noted are these: BaF3 mouse primary B cell, 72 hrs.
Excerpt: as §1, §2

The subject of assay [5] is NCI-H2228. The experiment in a line: Growth of cancer cells (Cell Titer-Glo viability), NCI-H2228. The class given is cell-based. The conditions noted are these: Homo sapiens; NCI-H2228 (wild-type ALK), 72 hrs.
Excerpt: as §1, §2

In assay [6] the test system is BaF3-ALK-F1174L. The experiment in a line: Cell growth (Cell Titer-Glo viability), BaF3-ALK-F1174L. It is filed as cell-based. The conditions noted are these: Mus musculus; BaF3-ALK-F1174L (mutant ALK F1174L kinase), 72 hrs.
Excerpt: as §1, §2

The test system of assay [7] is HCC827. As to the kind of experiment: Growth of cancer cells (Cell Titer-Glo viability), HCC827. It is filed as cell-based. The conditions noted are these: Homo sapiens; HCC827 (mutant EGFR del19), 72 hrs.
Excerpt: as §1, §2

In assay [8] the test system is BaF3-FL-EGFR-Del19. As to the kind of experiment: Cell growth (Cell Titer-Glo viability), BaF3-FL-EGFR-Del19. It is filed as cell-based. The following applies: Mus musculus; BaF3-FL-EGFR-Del19 (EGFR delE746_A750 mutant kinase), 72 hrs.
Excerpt: as §1, §2

The subject of assay [9] is BaF3-TEL-EGFR-T790M. The experiment in a line: Cell growth (Cell Titer-Glo viability), BaF3-TEL-EGFR-T790M. It is filed as cell-based. The conditions noted are these: Mus musculus; BaF3-TEL-EGFR-T790M (EGFR T790M mutant kinase), 72 hrs.
Excerpt: as §1, §2

Assay [10] concerns PC-9. As to the kind of experiment: Growth of cancer cells (Cell Titer-Glo viability), PC-9. The conditions noted are these: Homo sapiens; PC-9 (EGFR delE746_A750 mutant), 72 hrs. The class given is cell-based.
Excerpt: as §1, §2

Assay [11] has as its system BaF3-TEL-ALK. As to the kind of experiment: Cell growth (Cell Titer-Glo viability), BaF3-TEL-ALK. The class given is cell-based. The conditions noted are these: Mus musculus; BaF3-TEL-ALK (stably expressing ALK kinase), 72 hrs.
Excerpt: as §1, §2

Assay [12] concerns NCI-H3122. As to the kind of experiment: Growth of cancer cells (Cell Titer-Glo viability), NCI-H3122. It is filed as cell-based. The following applies: Homo sapiens; NCI-H3122 (expressing ALK gene), 72 hrs; read-out: GI50.
Excerpt: as §1, §2

The test system of assay [13] is CHL. As to the kind of experiment: Cell growth (Cell Titer-Glo viability), CHL. It is filed as cell-based, Chinese hamster. The following applies: Cricetulus griseus; CHL Chinese hamster lung cell, 72 hrs; read-out: GI50.
Excerpt: as §1, §2

The subject of assay [14] is NCI-H1975. The experiment in a line: Growth of cancer cells (Cell Titer-Glo viability), NCI-H1975. The conditions noted are these: Homo sapiens; NCI-H1975 (EGFR L858R/T790M double mutant), 72 hrs. It is filed as cell-based.
Excerpt: as §1, §2

Assay [15] relates to HCC4006. As to the kind of experiment: Growth of cancer cells (Cell Titer-Glo viability), HCC4006. It is filed as cell-based. The conditions noted are these: Homo sapiens; HCC4006 (mutant EGFR del19), 72 hrs.
Excerpt: as §1, §2

The subject of assay [16] is A431. The experiment in a line: Growth of cancer cells (Cell Titer-Glo viability), A431. The class given is cell-based. The following applies: Homo sapiens, A-431; A431 (wild-type EGFR), 72 hrs; read-out: GI50.
Excerpt: as §1, §2

Assay [17] deals with BaF3-TEL-INSR. As to the kind of experiment: Cell growth (Cell Titer-Glo viability), BaF3-TEL-INSR. The class given is cell-based. The conditions noted are these: Mus musculus; BaF3-TEL-INSR (stably expressing INSR protein), 72 hrs.
Excerpt: as §1, §2

Assay [18] has as its system BaF3-NPM-ALK. As to the kind of experiment: Cell growth (Cell Titer-Glo viability), BaF3-NPM-ALK. It is filed as cell-based. The following applies: Mus musculus; BaF3-NPM-ALK (stably expressing ALK kinase), 72 hrs.
Excerpt: as §1, §2

Assay [19] concerns NCI-H3255. As to the kind of experiment: Growth of cancer cells (Cell Titer-Glo viability), NCI-H3255. The class given is cell-based. The conditions noted are these: Homo sapiens; NCI-H3255 (EGFR L858R mutant), 72 hrs.
Excerpt: as §1, §2

Each structure is given as a SMILES string.

One may read the GI50 as the concentration that inhibits growth by half. Take `C=CC(=O)Nc1cc(Nc2ncc(Cl)c(Nc3ccccc3S(=O)(=O)C(C)C)n2)c(OC)cc1N1CCN(S(C)(=O)=O)CC1` [Compound 5, N-(5-(5-chloro-4-(2-(isopropylsulfonyl)phenylamino)pyrimidin-2-ylamino)-4-methoxy-2-(4-(methylsulfonyl)piperazin-1-yl)phenyl)acrylamide]: the GI50 in assay [1] is 170 nM; in [2], 5.2 µM; in assay [3] it was 3.3 µM; in [4], 2.8 µM; in assay [5] it was 240 nM; in assay [6], 2300 nM. Also, the GI50 in [7] is 44 nM; in assay [8] it was 7 nM; in assay [9], 53 nM; in assay [10] it was 39 nM; in [11], 10 nM; in [12] it was < 0.3 nM. In addition, the GI50 in assay [13] is 2.3 µM; in [14], 40 nM; in [15], 160 nM; in [16], 1100 nM.

Take `C=CC(=O)Nc1cc(Nc2ncc(Cl)c(Nc3ccccc3P(C)(C)=O)n2)c(OC)cc1N1CCC(N2CCCCC2)CC1` [Compound 48, N-(5-(5-chloro-4-(2-(dimethylphosphinoyl)phenylamino)pyrimidin-2-ylamino)-4-methoxy-2-(4-(piperidin-1-yl)piperidin-1-yl)phenyl)acrylamide]: the GI50 came to 290 nM in assay [17]; 5.3 µM in assay [3]; 5.3 µM in assay [4]; 5 nM in [7]; 32 nM in assay [10]; 380 nM in assay [18]. For the same compound, the 50% growth inhibitory concentration (GI50) in [11] worked out at 190 nM; in assay [12], 78 nM; in assay [19] it was 200 nM; in [14], 41 nM.

Regarding `C=CC(=O)Nc1cc(Nc2ncc(Cl)c(Nc3ccccc3S(=O)(=O)C(C)C)n2)c(OC)cc1N1CCCCC1` [Compound 6, N-(5-(5-chloro-4-(2-(isopropylsulfonyl)phenylamino)pyrimidin-2-ylamino)-4-methoxy-2-(piperidin-1-yl)phenyl) acrylamide], the GI50 in assay [1] came out at 880 nM; in [2], 0.36 µM; in assay [3], 0.33 µM; in assay [4], 0.34 µM; in assay [5], 200 nM; in assay [6], 310 nM. The GI50 in assay [7] was 51 nM; in [8], 6 nM; in [9], 18 nM; in [10] it was 27 nM; in assay [11], 15 nM; in assay [12] it was 29 nM. Also, the GI50 in [13] is > 10 µM; in assay [14], 240 nM; in assay [15], 260 nM; in assay [16] it was 540 nM.

Regarding `C=CC(=O)Nc1cc(Nc2ncc(Cl)c(Nc3ccccc3P(C)(C)=O)n2)c(OC)cc1N1CCC(N(C)C)CC1` [Compound 49, N-(5-(5-chloro-4-(2-(dimethylphosphinoyl)phenylamino)pyrimidin-2-ylamino)-2-(4-(dimethylamino)piperidin-1-yl)-4-methoxyphenyl)acrylamide], the GI50 in assay [17] was 920 nM; in assay [3] it was 8.6 µM; in assay [4], > 10 µM; in [7], 15 nM; in [10], 120 nM; in assay [18], 600 nM. Further, the GI50 came to 450 nM in assay [11], 140 nM in [12], 350 nM in assay [19] and 220 nM in assay [14].

With `C=CC(=O)Nc1cc(Nc2ncc(Cl)c(Nc3ccccc3S(=O)(=O)C(C)C)n2)c(OC)cc1N1CCN(C(=O)OC(C)(C)C)CC1` [Compound 3, tert-butyl 4-(2-acrylamido-4-(5-chloro-4-(2-(isopropylsulfonyl)phenylamino)pyrimidin-2-ylamino)-5-methoxyphenyl)piperazine-1-carbonate], the GI50 in assay [1] was 710 nM; in assay [2] it was > 10 µM; in [3], > 10 µM; in assay [4], 4.7 µM; in [5] it was 560 nM; in assay [6] it was 1300 nM. For the same compound, the GI50 in assay [7] was 370 nM; in assay [8], 130 nM; in [9], 290 nM; in assay [10], 250 nM; in assay [11] it was 24 nM; in assay [12], 32 nM. For the same compound, the GI50 was > 10 µM in assay [13], 380 nM in [14], 1100 nM in assay [15] and 1200 nM in [16].

As for `C=CC(=O)Nc1cc(Nc2ncc(Cl)c(Nc3ccccc3P(C)(C)=O)n2)c(OC)cc1N1CCN(CC)CC1` [Compound 47, N-(5-(5-chloro-4-(2-(dimethylphosphinoyl)phenylamino)pyrimidin-2-ylamino)-2-(4-ethylpiperazin-1-yl)-4-methoxyphenyl)acrylamide], the GI50 in [17] was 72 nM; in assay [3], 1.7 µM; in assay [4], > 10 µM; in [7], < 0.3 nM; in assay [10], 5 nM; in [18], 310 nM. Also, the GI50 in assay [11] worked out at 74 nM; in [12] it was 37 nM; in [19], 140 nM; in assay [14] it was 26 nM.
